Experiments:
Siglec-2 (CD22) = target: T1, Siglec-2 (CD22) (Homo sapiens, UniProt P20273); settings: value from cited reference; cited from earlier work
T1 sequence (P20273 20-847): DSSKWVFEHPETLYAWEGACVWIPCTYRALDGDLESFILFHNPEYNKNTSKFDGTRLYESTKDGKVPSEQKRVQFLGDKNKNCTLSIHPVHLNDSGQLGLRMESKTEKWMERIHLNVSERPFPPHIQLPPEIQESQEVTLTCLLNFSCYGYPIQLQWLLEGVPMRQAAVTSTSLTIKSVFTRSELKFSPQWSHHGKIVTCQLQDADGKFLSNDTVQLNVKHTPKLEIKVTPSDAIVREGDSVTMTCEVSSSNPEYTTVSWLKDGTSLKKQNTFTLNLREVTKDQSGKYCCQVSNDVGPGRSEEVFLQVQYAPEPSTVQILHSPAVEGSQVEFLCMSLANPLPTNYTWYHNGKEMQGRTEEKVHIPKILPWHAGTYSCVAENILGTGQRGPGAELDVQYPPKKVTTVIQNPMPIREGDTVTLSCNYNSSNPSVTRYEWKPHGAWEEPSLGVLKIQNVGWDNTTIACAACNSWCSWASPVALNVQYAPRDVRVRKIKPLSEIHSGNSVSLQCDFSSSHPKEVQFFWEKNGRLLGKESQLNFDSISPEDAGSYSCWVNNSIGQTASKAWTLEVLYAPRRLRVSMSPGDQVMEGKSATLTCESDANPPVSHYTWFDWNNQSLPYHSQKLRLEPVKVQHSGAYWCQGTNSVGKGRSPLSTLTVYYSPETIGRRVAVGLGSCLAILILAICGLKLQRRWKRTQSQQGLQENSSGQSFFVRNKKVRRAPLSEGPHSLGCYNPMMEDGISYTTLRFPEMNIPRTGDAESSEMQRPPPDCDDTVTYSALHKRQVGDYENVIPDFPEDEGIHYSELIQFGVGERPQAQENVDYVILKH

C57BL6 mice [1] = experiment: prophylactic tolerization and anti-drug antibody (ADA) production in C57BL6 mice (Example 4); assay type: in vivo, mouse; settings: 4 weekly s.c. doses of 4 mg/kg; serum day 28
Source text: To evaluate the production of antibodies specific to adalimumab, two control groups of C57BL6 mice were immunized with adalimumab or the individual SigL-conjugated adalimumab antibodies. Conjugates bear BPC-Neu5Gc-based Siglec Ligand-Linker structures with affinity for Siglec-2. On study day −1, animals were randomized into treatment groups based on body weight. On study day 0, animals were bled for baseline serum and then injected subcutaneously (s.q.) with adalimumab or the individual SigL-conjugated adalimumab antibodies once every seven days for a total of four injections over twenty-eight days. The individual antigens were prepared by making a 0.8 mg/ml antigen solution in sterile buffered saline. Animals were then injected with 0.1 ml (˜4 ml/kg) of the 0.8 mg/ml antigen on the rear flanks. The total dose based on a 20 g mouse would be 4 mg/kg per injection. […]
(§1) Anti-drug antibody (ADA) response assays were performed on 96-well assay plates (Nunc Plates, Black 96-Well Immuno Plates, Thermo Scientific, 437111) coated with antigen, as follows. […] The excitation and emission settings for the QuantaBlu Fluorogenic Peroxide Substrates are 325 nm and 420 nm and the relative florescence units were measured using a SpectraMax plate reader. […] Titers were determined by the dilution of serum that gives a 2× OD above background.

C57BL6 mice [2] = experiment: anti-antigen antibody production in C57BL6 mice pre-dosed with adalimumab (Example 5); assay type: in vivo, mouse; settings: one to four weekly 4 mg/kg s.c. doses (groups A to D); serum day 27
Source text: To evaluate the production of antibodies specific to adalimumab-SigL conjugates after pre-dosing with adalimumab, C57BL6 mice were immunized with adalimumab one, two, three, or four times (groups A to D), or once with adalimumab followed by two doses of adalimumab-SigL (Group E) (FIG. 5). Conjugates bear BPC-Neu5Gc-based Siglec Ligand-Linker structures with affinity for Siglec-2. On study day −1, animals were randomized into treatment groups based on body weight. On study day 0, animals were bled for baseline serum and then injected subcutaneously (s.q.) with adalimumab, SigL-conjugated adalimumab antibody, or PBS, once every seven days for a total of four injections over twenty-eight days. The individual antigens were prepared by making a 0.8 mg/ml antigen solution in sterile buffered saline. Animals were then injected with 0.1 ml (˜4 ml/kg) of the 0.8 mg/ml antigen on the rear flanks. […]
as §1

C57Bl/6 mice [3] = experiment: durability of tolerization with late adalimumab challenges (Example 12); assay type: in vivo, mouse; settings: 4 weekly 4 mg/kg s.c. doses, then adalimumab 4 mg/kg at days 91, 147, 174, 202
Procedure: To evaluate the durability of the induced tolerization status established with the SigL-conjugated adalimumab (as exemplified in Examples 4 and 11), female C57Bl/6 mice (n=5 per group) were primed with four subcutaneous doses of either SigL-conjugated adalimumab (4 mg/kg) or unconjugated adalimumab (4 mg/kg) given seven days apart over a 28 day period. Animals in both groups were later challenged with single subcutaneous doses of unconjugated adalimumab (4 mg/kg) at days 91, 147, 174, and 202. Animals were injected with 0.1 ml (˜4 mg/kg) of the 0.8 mg/ml test article preparations on the rear flanks. The total dose based on a 20 g mouse would be 4 mg/kg per injection per dose. Bleeds were taken for anti-drug antibody analysis at days 0, 28, 112, 146, 168, 201, and 232. Anti-drug antibody (ADA) response assays were performed as described in Example 4.

C57Bl/6 mice [4] = experiment: ex vivo flow cytometry of splenic adalimumab-specific and germinal center B cells (Example 13); assay type: in vivo, mouse
Procedure: To measure B cell activation following the described stimulation, cells were washed twice by spinning cells at 1200 rpm for 5 minutes and rinsing with PBS. Cells were then resuspended in staining buffer (1% bovine serum albumin/0.1% sodium azide/1× phosphate buffered saline) and incubated with Fc-block (BD Biosciences) for five minutes before the addition of anti-CD45, anti-CD19, anti-CD69, and anti-CD86 antibodies (BD Biosciences, Biolegend, Fisher). Cells were then incubated in the dark for an additional 30 minutes at room temperature. Cells were then washed three times with staining buffer and then analyzed on a ZE5 Cell Analyzer (BioRad). Data analysis was performed using FlowJo (v10.8.0) software.
For studies evaluating the generation of adalimumab-specific B cells, C57Bl/6 mice were dosed with a single subcutaneous dose of either SigL-adalimumab (4 mg/kg) or unconjugated adalimumab (4 mg/kg). Splenocytes were then isolated from animals seven days after dosing. In the experiment depicted in FIG. 15, mice that had been dosed with unconjugated adalimumab (4 mg/kg) on Day 0 were dosed again on Day 3 with SigL-adalimumab (4 mg/kg, subcutaneous) or vehicle (PBS) prior to splenocyte isolation on Day 7 of the study.
For the evaluation of germinal center formation (FIG. 14), C57Bl/6 mice were dosed with a single subcutaneous dose of either SigL-adalimumab (4 mg/kg), unconjugated adalimumab (4 mg/kg) or vehicle (PBS) on Day 0. Animals in each arm of this study were then dosed on Day 7 with either a single subcutaneous dose of SigL-adalimumab (4 mg/kg) or unconjugated adalimumab (4 mg/kg). Formation of adalimumab-specific B cells and germinal center B cells were then analyzed on Day 14 of the study as described below.
At the specified time points described above, splenocytes were harvested from individual animals and made into single cell suspension, subjected to red cell lysis using ACK buffer, and plated at a concentration of 200,000 cells per well in round bottom 96 well plates in complete RPMI media. Cells were then processed for flow cytometry as described above. For adalimumab-specific B cells, splenocytes were stained with anti-CD4, ant-CD8a, anti-F4/80, anti-LY6G, anti-CD19, anti-IgD (BD Biosciences, Biolegend, Fisher, eBioscience) and adalimumab-[…] conjugate (Invitrogen). For germinal center B cells, splenocytes were stained with anti-CD45, anti-CD19, anti-GL7, and anti-CD95. Cells were then incubated in the dark for an additional 30 minutes at room temperature. Cells were then washed three times with staining buffer and then analyzed on a ZE5 Cell Analyzer (BioRad). Data analysis was performed using FlowJo (v10.8.0) software.

C57Bl/6 mice [5] = experiment: ADA response to adalimumab-anti-mouse CD22 scFv fusion protein in mice (Example 15); assay type: in vivo; settings: after a single 4 mg/kg dose
Source text: To evaluate the production of antibodies specific to adalimumab and/or adalimumab-anti-mouse CD22 scFv fusion protein, 8 week old female C57BL/6 mice (n=5 per group) were immunized through intravenous injection with adalimumab or adalimumab-anti-mouse CD22 scFv fusion protein. On study day −1, animals were randomized into treatment groups based on body weight. On study day 0, animals were bled for baseline serum and then injected IV with adalimumab or adalimumab-anti-mouse CD22 scFv fusion protein. Animals were dosed […] with 4 mg/kg of adalimumab or adalimumab-anti-mouse CD22 scFv fusion protein. Animals were bled via the retro-orbital sinus weekly throughout the study under inhaled isoflurane anesthesia. On study day, 28 animals were anesthetized with inhaled isoflurane anesthesia and then bled via cardiac puncture and then sacrificed by cervical dislocation. […]
as §1, with “ADA” for “Anti-drug antibody (ADA) response”

## CO[C@]1(C(=O)O)CC(O)[C@@H](NC(C)=O)C([C@H](O)[C@H](O)CNC(=O)c2ccc(-c3ccccc3)cc2)O1 (stereo partly shown)
Siglec-2 (CD22)
  IC50: 4000 nM

## COc1ccc(OC2OC(COC3(C(=O)O)CC(O)C(NC(=O)CO)C(C(O)C(O)CNCc4ccc(-c5ccc(O)cc5)cc4)O3)C(O)C(O)C2O)cc1 (stereo not shown)
Siglec-2 (CD22)
  IC50: 240 nM

## O=C(Cc1ccc(-c2ccc(O)cc2)cc1)NCC(O)C(O)C1OC(OCc2ccccc2)(C(=O)O)CC(O)C1NC(=O)CO (stereo not shown)
Siglec-2 (CD22)
  IC50: 100 nM

## O=C(Cc1ccc(-c2ccc(O)cc2)cc1)NC[C@@H](O)C(O)C1O[C@@](OCc2cccc(Cl)c2Cl)(C(=O)O)CC(O)[C@H]1NS(=O)(=O)c1ccccc1[N+](=O)[O-] (stereo partly shown)
Siglec-2 (CD22)
  IC50: 60 nM

## COC1(C(=O)O)CC(NS(=O)(=O)c2ccc(C)cc2)C(NC(C)=O)C(C(O)C(O)CNC(=O)c2ccc(-c3ccccc3)cc2)O1 (stereo not shown)
Siglec-2 (CD22)
  IC50: 150 nM

## adalimumab
C57BL6 mice [1]
  immunogenicity (anti-drug antibody response, serum IgG titer): highly immunogenic
C57BL6 mice [2]
  anti-adalimumab titers: progressively stronger anti-adalimumab titers
C57Bl/6 mice [3]
  anti-drug antibody level: strong, saturating level of ADA
C57Bl/6 mice [4]; 7 days post single 4 mg/kg s.c. dose
  presence of adalimumab-specific B cells (CD45+CD19+IgD−Adal+) in spleen: detected
C57Bl/6 mice [4]; day 14, s.c. dosing days 0 and 7, conjugate day 0 followed by adalimumab day 7
  splenic adalimumab-specific B cells: induces
C57Bl/6 mice [4]; spleen, 7 days post single 4 mg/kg s.c. dose
  mean abundance of adalimumab-specific B cells: 0.2 % of splenic IgD^− B cells
C57Bl/6 mice [4]; spleen, day 14, dosing days 0 and 7
  germinal center B cells (CD19+CD95+GL7+): increase in the abundance of germinal center B cells
C57Bl/6 mice [5]
  immunogenicity in mice (immunoglobulin response): highly immunogenic

From patent publication US20240216490A1, “Autoantigens Engineered to Suppress Autoimmune Response” (Osprey Biopharmaceuticals, Inc., priority 2022, published 2024)
